Results reported in patent EP0303028A1, “Method for preparing single chain urokinase” (GRUPPO LEPETIT S.p.A., priority 1987, dated 1989).
Square brackets hold non-standard residues; d marks the D form. Peptide text beside a SMILES is read from it. * marks the point of attachment. pNA = O=[N+]([O-])c1ccc(N*)cc1; pGlu = O=C1CC[C@@H](C(=O)O)N1

Assays:
Test in all cases: Kinetics of amidolytic activity on S-2444 (Lineweaver-Burk)
Assay type in all cases: biochemical
Details in all cases: pH 8.8 and 37°C
[1] = target: plasmin-activated urinary scu-PA (human urine tcu-PA, urokinase) (Homo sapiens, UniProt P00749)
Description: (§1) The fibrinolytic assay is carried out by the fibrin plate method (Astrup T., Mullertz S., The fibrin plate method for estimating fibrinolytic activity, Arch Biochem Biophys 1952, 40:346-351). Urokinase reference standard is used to calibrate each assay. Activity is measured in International Units (I.U.) relative to the International Reference Preparation as the primary standard. sc-uPA (cell produced single chain urokinase) fibrinolytic latent activity is determined after activation as follows: plasmin (10 mg) is coupled with CNBr-activated Sepharose (cross-linked agarose) (2.5 ml) using 0.5 M sodium carbonate buffer as the coupling buffer. A 1:10 suspension of plasmin-agarose (0.9 ml) in 0.15 M sodium chloride, 0.05 M sodium phosphate buffer pH 7.4 is mixed with sc-uPA samples (0.1 ml) and gently rotated for 1 h at 20°C. Plasmin-agarose is removed by centrifugation 2 min at 10000 x g and the supernatant tested by the fibrin plate assay. Protein concentrations were measured according to the method of Lowry (Lowry O., Rosebrough H., Parr A., Randall R., Protein measurement with the Folin phenol reagent, J. Biol. Chem. 1951, 193,265-275). Amidolytic assays are performed by measuring the rate of hydrolysis of the synthetic substrate pyro-Glu-Gly-Arg-pNA, S-2444 (Claeson G., Friberger P., Knos M., Eriksson E., Methods for determination of pre-kallikrein in plasma, glandular kallikrein and urokinase, Haemostasis 1978; 7:76-78). Immunoadsorbent-amidolytic assay (IAA) is carried out as described by Corti A., Nolli ML., Cassani G., Differential detection of single-chain and two-chain urokinase type plasminogen activator by a new immunoadsorbent amidolytic assay (IAA), Throm Haemostas 1986, 56:407-10. The assay combines the selectivity of immunoassays with the specificity of enzyme activity assays exploiting both the antigenic and enzymatic properties of the two proteins. tcu-PA and scu-PA are selectively immunoadsorbed on the wells of a microtiter plate coated with the monoclonal antibody 5B4 and tested for enzymatic activity before and after activation by plasmin treatment.
(§2) To determine the kinetic parameters of the amidolytic activity, plasmin-activated u-PA's (4.5 nM) are incubated at different concentrations (0.03 - 0.3 mM) of pyro-Glu-Gly-Arg-p-nitroanilide (S-2444) in 0.1 M Tris Cl (pH 8.8), 50 mM NaCl and 0.1% bovine serum albumin at 37°C. The initial rate of p-nitroaniline release is determined photometrically at 405 nm. The linear increase of absorbance with time for the various concentrations of S-2444 is reported in a Lineweaver-Burk plot from which Km and Vmax are calculated by extrapolation of the curves obtained using a linear regression program.

[2] = target: plasmin-activated RSV-CHO-scu-PA (recombinant human uPA from RSV-uPA transfected CHO cells) (Homo sapiens, UniProt P00749)
Description: as §1, §2

[3] = target: plasmin-activated BPV-LB6-scu-PA (recombinant human uPA from BPV vector transfected murine LB6 cells) (Homo sapiens, UniProt P00749)
Description: as §1, §2

[4] = target: plasmin-activated A431 scu-PA (from untransformed human A431 cells) (Homo sapiens, UniProt P00749)
Description: as §1, §2

[5] = target: plasmin-activated RSV-A431-scu-PA (recombinant human uPA from RSV-uPA transfected A431 cells) (Homo sapiens, UniProt P00749)
Description: as §1, §2

[6] = target: plasmin-activated RSV-LB6-scu-PA (3F11-scu-PA; recombinant human uPA from RSV-uPA transfected murine LB6 cells) (Homo sapiens, UniProt P00749)
Description: as §1, §2

N=C(N)NCCC[C@H](NC(=O)CNC(=O)[C@@H]1CCC(=O)N1)C(=O)Nc1ccc([N+](=O)[O-])cc1 [S-2444, pyro-Glu-Gly-Arg-p-nitroanilide] ([pGlu]-Gly-Arg-pNA)
Km [1]: 80 µM
kcat [1]: 25 s⁻¹
Km [2]: 76 µM
kcat [2]: 26 s⁻¹
Km [3]: 78 µM
kcat [3]: 26 s⁻¹
Km [4]: 72 µM
kcat [4]: 23 s⁻¹
Km [5]: 76 µM
kcat [5]: 23 s⁻¹
Km [6]: 69 µM
kcat [6]: 24 s⁻¹
